# Experiments:
# [1] = test system: Staphylococcus epidermidis (DSM20042); assay: Bactericidal activity of laccase/enhancer systems, Malthus conductance enumeration of surviving cells; type: cell-based; details: for bactericidal activity when combined with laccase: laccase (rMtL or rPpL) 3 mg/L; for bactericidal activity when combined with laccase / bactericidal activity without laccase / bactericidal activity when combined with Polyporus laccase / Bactericidal activity (log(cfu/ml)=the logarithm to the number of killed cells): pH 6, 40° C.; for bactericidal activity when combined with laccase / bactericidal activity without laccase / bactericidal activity when combined with Polyporus laccase: 20 minutes; for bactericidal activity without laccase: no laccase; for bactericidal activity when combined with Polyporus laccase: rPpL 3 mg/L; for Bactericidal activity (log(cfu/ml)=the logarithm to the number of killed cells): enhancer 0.1 mM with rPpL or rMtL 3 mg/L, 20 min, approx. 10^4 cfu/ml
# Method: Bactericidal activity was evaluated in 0.05 M MES-buffer (2-[N-morpholino]ethanesulfonic acid) (pH 6), which were flushed with air for 5 min before filter sterilisation. The bactericidal activity was determined against Pseudomonas aeruginosa (ATCC10145) and Staphylococcus epidermidis (DSM20042). Cells were grown in Tryptone Soya Broth (Oxoid CM129) at 30° C. for 24 h and diluted in the MES-buffer to a final cell concentration of approximately 10^4 cfu/ml. The cell suspensions were mixed with laccase (3 mg/L) and enhancer (0.1 mM) for 20 min at 40° C. The bactericidal activity was determined by incubation in Malthus. Detection times measured by the Malthus instrument were converted to cfu/ml by a calibration curve. Either direct or indirect Malthus measurements were used when enumerating total survival cells (Malthus Flexi M2060, Malthus Instrument Limited). By the direct measurements, the cell metabolism was determined by conductance measurements in the growth substrate. By the indirect measurements, 3 ml of growth medium was transferred to the outer chamber of the indirect Malthus cells, and 0.5 ml of sterile KOH (0.1 M) was transferred to the inner chamber. The cell suspensions were after enzyme treatment transferred to the outer chamber of the Malthus cell. As cells are growing in the outer chamber they produce CO2 which will dissolve in the KOH in the inner chamber and thereby change the conductance of the KOH. The amount of CO2 formed by the respiring cells surviving the enzyme treatment was used for estimating the number of viable cells. When the conductance change is measurable by the Malthus, a detection time (dt) will be recorded. The dt-s were converted to colony counts by use of a calibration curve relating cfu/ml to dt (Johansen et al. 1995. Journal of Applied Bacteriology 78:297-303, Johansen et al. 1997, Applied and Environmental Microbiology 63:3724-3728). […]
# [2] = test system: Pseudomonas aeruginosa (ATCC10145); assay: as above; type: cell-based; details: for Bactericidal activity (log(cfu/ml)=the logarithm to the number of killed cells): enhancer 0.1 mM with rPpL or rMtL 3 mg/L, 20 min, approx. 10^4 cfu/ml
# Method: Bactericidal activity was evaluated in 0.05 M MES-buffer (2-[N-morpholino]ethanesulfonic acid) (pH 6), which were flushed with air for 5 min before filter sterilisation. The bactericidal activity was determined against Pseudomonas aeruginosa (ATCC10145) and Staphylococcus epidermidis (DSM20042). Cells were grown in Tryptone Soya Broth (Oxoid CM129) at 30° C. for 24 h and diluted in the MES-buffer to a final cell concentration of approximately 10^4 cfu/ml. The cell suspensions were mixed with laccase (3 mg/L) and enhancer (0.1 mM) for 20 min at 40° C. The bactericidal activity was determined by incubation in Malthus. Detection times measured by the Malthus instrument were converted to cfu/ml by a calibration curve. Either direct or indirect Malthus measurements were used when enumerating total survival cells (Malthus Flexi M2060, Malthus Instrument Limited). By the direct measurements, the cell metabolism was determined by conductance measurements in the growth substrate. By the indirect measurements, 3 ml of growth medium was transferred to the outer chamber of the indirect Malthus cells, and 0.5 ml of sterile KOH (0.1 M) was transferred to the inner chamber. The cell suspensions were after enzyme treatment transferred to the outer chamber of the Malthus cell. As cells are growing in the outer chamber they produce CO2 which will dissolve in the KOH in the inner chamber and thereby change the conductance of the KOH. The amount of CO2 formed by the respiring cells surviving the enzyme treatment was used for estimating the number of viable cells. When the conductance change is measurable by the Malthus, a detection time (dt) will be recorded. The dt-s were converted to colony counts by use of a calibration curve relating cfu/ml to dt (Johansen et al. 1995. Journal of Applied Bacteriology 78:297-303, Johansen et al. 1997, Applied and Environmental Microbiology 63:3724-3728).
# Antimicrobial activity (i.e. bactericidal activity) of Myceliophthera laccase (rMtL) and methylsyringate (MeS) was determined using a 32 factorial design at pH 6 at 40° C. in MES-buffer as described in example 1, however, a higher cell concentration was used (10^7-10^8 cfu/ml). Tested rMtL levels was 0-2,5-5 mg/L and MeS levels was 0-5-10 mM.
# Antimicrobial activity (i.e. bactericidal activity) of Myceliophthera laccase (rMtL) and Polyporus laccase (rPpL) was determined against Staphylococcus epidermidis at pH 6 in MES-buffer as described in example 1, the laccases was used in the concentration of 3 mg/L. Acetosyringon, methylsyringate, ethylsyringate, butylsyringate and laurylsyringate were evaluated as electron-donors in the concentration of 0.2 mM.
# Antimicrobial activity of laccases with two enhancers was determined against Pseudomonas aeruginosa (ATCC 10145) and Staphylococcus epidermidis (DSM 20042) at pH 6 as described in example 1. Methylsyringate and acetosyringon was used as enhancers and the laccase was rPpL (1 mg/L) and the antimicrobial activity was determined by use of a 32 factorial experimental design.
SMILES,bactericidal activity when combined with Polyporus laccase ([1]; enhancer 0.2 mM),Bactericidal activity (log(cfu/ml)=the logarithm to the number of killed cells) [1],"Bactericidal activity (log(cfu/ml)=the logarithm to the number of killed cells) ([2]; pH 6, 40° C.)",also measured
COc1cc(C(C)=O)cc(OC)c1O [acetosyringon],100%,–,–,"bactericidal activity when combined with laccase ([1]; enhancer 0.2 mM): significantly increased; bactericidal activity without laccase ([1]; enhancer 0.2 mM): did also show bactericidal activity; bactericidal activity with Myceliophthera laccase ([1]; enhancer 0.2 mM, rMtL 3 mg/L, pH 6, compared to Polyporus laccase and to the other syringate compounds): decreased; bactericidal activity, comparison of the syringate-compounds as enhancers ([2]; different syringate-compounds with laccase): most bactericidal enhancer; cell reduction ([2]; with rPpL (1 mg/L), pH 6, 40° C.): approximately 1.5 log units"
"O=C(/C=C/c1ccc(O)c(O)c1)O[C@@H]1C[C@](O)(C(=O)O)C[C@@H](O)[C@H]1O [chlorogenic acid, reference compound]",–,None of the other enhancers resulted in bactericidal activity,None of the other enhancers resulted in bactericidal activity,–
CCCCOC(=O)c1cc(OC)c(O)c(OC)c1 [butylsyringate],100%,–,–,–
CCCCCCCCCCCCOC(=O)c1cc(OC)c(O)c(OC)c1 [laurylsyringate],–,–,–,bactericidal activity when combined with laccase ([1]; enhancer 0.2 mM): significantly increased; bactericidal activity without laccase ([1]; enhancer 0.2 mM): did also show bactericidal activity
CCOC(=O)c1cc(OC)c(O)c(OC)c1 [ethylsyringate],100%,–,–,–
COc1cc(C=O)cc(OC)c1O [syringaldehyde],–,None of the other enhancers resulted in bactericidal activity,None of the other enhancers resulted in bactericidal activity,–
"O=C(O)C=Cc1ccccc1 [cinnamic acid, reference compound]",–,None of the other enhancers resulted in bactericidal activity,None of the other enhancers resulted in bactericidal activity,–
"O=C(O)CCN1c2ccccc2Sc2ccccc21 [PPT, reference compound]",–,None of the other enhancers resulted in bactericidal activity,None of the other enhancers resulted in bactericidal activity,–

# From patent US20010025018A1, “Antimicrobial activity of laccases” (priority 1997, published 2001)
